Source: the Kinase Knowledgebase extract (Sharma et al. 2016)

Target: PIK3CA (human) (UniProt P42336)
Assay: Inhibition of PIK3CA Kinase Activity

Sequence of PIK3CA (human) (P42336 whole entry, looked up): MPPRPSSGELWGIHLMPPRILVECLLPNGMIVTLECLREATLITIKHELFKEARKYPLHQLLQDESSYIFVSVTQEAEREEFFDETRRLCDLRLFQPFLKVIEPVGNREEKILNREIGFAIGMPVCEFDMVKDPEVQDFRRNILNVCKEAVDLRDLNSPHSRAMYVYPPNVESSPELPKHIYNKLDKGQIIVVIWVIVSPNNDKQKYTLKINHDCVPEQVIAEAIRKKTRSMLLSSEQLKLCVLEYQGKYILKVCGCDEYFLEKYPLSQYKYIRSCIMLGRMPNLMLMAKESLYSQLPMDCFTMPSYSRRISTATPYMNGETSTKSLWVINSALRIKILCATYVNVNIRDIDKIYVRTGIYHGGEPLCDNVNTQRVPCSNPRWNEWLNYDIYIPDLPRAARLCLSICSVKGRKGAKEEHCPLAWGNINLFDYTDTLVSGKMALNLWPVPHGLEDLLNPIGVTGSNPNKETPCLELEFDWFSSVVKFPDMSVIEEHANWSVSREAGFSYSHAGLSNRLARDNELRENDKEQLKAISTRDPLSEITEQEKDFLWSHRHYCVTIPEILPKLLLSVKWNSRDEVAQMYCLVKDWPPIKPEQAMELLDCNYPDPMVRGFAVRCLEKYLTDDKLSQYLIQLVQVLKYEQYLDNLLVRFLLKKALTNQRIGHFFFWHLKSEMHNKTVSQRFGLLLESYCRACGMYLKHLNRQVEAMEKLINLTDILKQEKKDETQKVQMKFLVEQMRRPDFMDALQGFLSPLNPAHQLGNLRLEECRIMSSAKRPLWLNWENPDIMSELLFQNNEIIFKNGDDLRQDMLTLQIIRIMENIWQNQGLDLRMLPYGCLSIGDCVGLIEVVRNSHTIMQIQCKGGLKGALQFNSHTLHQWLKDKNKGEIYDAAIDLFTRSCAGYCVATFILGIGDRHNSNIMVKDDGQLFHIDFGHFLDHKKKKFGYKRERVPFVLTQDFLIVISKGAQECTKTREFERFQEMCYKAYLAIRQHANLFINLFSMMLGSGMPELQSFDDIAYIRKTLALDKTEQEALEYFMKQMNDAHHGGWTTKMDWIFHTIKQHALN

| Structure (SMILES) | IC50 |
| --- | --- |
| CCc1ncnc(N2CCOc3ccc(-c4ccc5nc(C)[nH]c5c4)cc3C2)c1CC | 50 to 250 nM |
| Nc1nc2ncc(-c3ccc4c(c3)CN(c3ncnc5ccc(Cl)cc35)CCO4)cc2[nH]1 | ≤ 10 nM |
| CCNc1nc2ncc(-c3ccc4c(c3)CN(c3nc(C)nc5c3CC(C)(C)CC5)CCO4)cc2[nH]1 | ≤ 10 nM |
| CCN(C)S(=O)(=O)c1cc(-c2ccc3c(c2)CN(c2ncnc4c2CC(C)(C)CC4)CCO3)cnc1N | 50 to 250 nM |
| CC1(C)CCc2ncnc(N3CCOc4ccc(-c5ccc6nc[nH]c6c5)cc4C3)c2C1 | 50 to 250 nM |
| Nc1nc2ncc(-c3ccc4c(c3)CN(c3ncnc5cccnc35)CCO4)cc2[nH]1 | 10 to 50 nM |
| CCC(N)CNS(=O)(=O)c1cc(-c2ccc3c(c2)CN(c2ncnc4c2CC(C)(C)CC4)CCO3)cnc1N (configuration not stated) | 10 to 50 nM |
| COc1cccc(Cc2c(C)ncnc2N2CCOc3ccc(-c4ccc5nc(C)[nH]c5c4)cc3C2)c1 | 10 to 50 nM |
| CCc1c(C)ncnc1N1CCOc2ccc(-c3ccc4nc(C)[nH]c4c3)cc2C1 | 50 to 250 nM |
| CNC(=O)c1ccc(-c2ccc3c(c2)CN(c2ncnc(C)c2Cc2ccc(F)cc2)CCO3)cc1 | 10 to 50 nM |
| CCNc1nc2ncc(-c3ccc4c(c3)CN(c3nc(C)nc5cc(OC)ccc35)CCO4)cc2[nH]1 | ≤ 10 nM |
| CCNc1nc2ccc(-c3ccc4c(c3)CN(c3nc(C)nc5cc(F)ccc35)CCO4)cc2[nH]1 | ≤ 10 nM |
| COC(=O)Nc1nc2ccc(-c3ccc4c(c3)CN(c3ncnc(C)c3Cc3ccc(F)cc3)CCO4)cc2[nH]1 | ≤ 10 nM |
| CCSc1nc2c(c(N3CCOc4ccc(-c5ccc6nc(C)[nH]c6c5)cc4C3)n1)CCC2 | 250 to 1000 nM |
| CC1(C)CCc2ncnc(N3CCOc4ccc(-c5cnc(Cl)c(NS(C)(=O)=O)c5)cc4C3)c2C1 | ≤ 10 nM |
| CNC(=O)c1ccc(-c2ccc3c(c2)CN(c2nc(CN(C)C)nc4c2CC(C)(C)CC4)CCO3)cc1 | 50 to 250 nM |
| Cc1nc2c(c(N3CCOc4ccc(-c5cnc(N)c(S(=O)(=O)N[C@@H]6CCN(C)C6)c5)cc4C3)n1)CC(C)(C)CC2 | 50 to 250 nM |
| CC1(C)CCc2ncnc(N3CCOc4ccc(-c5cnc(N)c(S(=O)(=O)N6CCCC(O)C6)c5)cc4C3)c2C1 (configuration not stated) | 10 to 50 nM |
| Cc1nc2ncc(-c3ccc4c(c3)CN(c3ncncc3C)CCO4)cc2[nH]1 | 250 to 1000 nM |
| CC1(C)C=Cc2ncnc(N3CCOc4ccc(-c5cnc6nc(C7CC7)[nH]c6c5)cc4C3)c2C1 | 10 to 50 nM |
| COC(=O)Nc1nc2ncc(-c3ccc4c(c3)CN(c3ncnc5c3CC(C)(C)C=C5)CCO4)cc2[nH]1 | ≤ 10 nM |
| Cc1nc2ccc(-c3ccc4c(c3)CN(c3ncnc5c3CC(C)C5)CCO4)cc2[nH]1 (configuration not stated) | 50 to 250 nM |

| Structure (SMILES) | IC50 |
| --- | --- |
| Cc1nc2ncc(-c3ccc4c(c3)CN(c3nc(CNC(C)(C)C)nc5c3CC(C)(C)CC5)CCO4)cc2[nH]1 | 10 to 50 nM |
| CC1(C)CCc2ncnc(N3CCOc4ccc(-c5cnc(N)c(S(=O)(=O)N6CCCC(N)C6)c5)cc4C3)c2C1 (configuration not stated) | 50 to 250 nM |
| CCNc1nc2ccc(-c3ccc4c(c3)CN(c3ccnc5cc(OC)c(OC)cc35)CCO4)cc2[nH]1 | 10 to 50 nM |
| CCc1nc2cc(-c3ccc4c(c3)CN(c3ncnc5c3CC(C)(C)CC5)CCO4)cnc2[nH]1 | 10 to 50 nM |
| CCNc1nc2ccc(-c3ccc4c(c3)CN(c3nc(C)nc5ccccc35)CCO4)cc2[nH]1 | 10 to 50 nM |
| CC1(C)CCc2ncnc(N3CCOc4ccc(-c5cnc(N)c(S(=O)(=O)N6CC[C@H](N)C6)c5)cc4C3)c2C1 | 10 to 50 nM |
| COc1ccc2c(N3CCOc4ccc(-c5cnc6nc[nH]c6c5)cc4C3)nc(C)nc2c1 | ≤ 10 nM |
| CC[C@H]1CCc2c(ncnc2N2CCOc3ccc(-c4cnc5nc(NC(=O)OC)[nH]c5c4)cc3C2)C1 | ≤ 10 nM |
| Cc1nc2ncc(-c3ccc4c(c3)CN(c3ncnc(C)c3C(C)C)CCO4)cc2[nH]1 | 10 to 50 nM |
| CC1(C)CCc2ncnc(N3CCOc4ccc(-c5ccc6nc(N)[nH]c6c5)cc4C3)c2C1 | 50 to 250 nM |
| Cc1nc2cc(-c3ccc4c(c3)CN(c3nc(CF)nc5c3CC(C)(C)CC5)CCO4)ccc2[nH]1 | 10 to 50 nM |
| Cn1c(N)nc2cc(-c3ccc4c(c3)CN(c3ccnc5ccccc35)CCO4)ccc21 | 250 to 1000 nM |
| COCCOCc1nc2c(c(N3CCOc4ccc(-c5cnc6nc(C)[nH]c6c5)cc4C3)n1)CC(C)(C)CC2 | 10 to 50 nM |
| Cc1nc2ccc(-c3ccc4c(c3)CN(c3ncnc5c(Cl)cccc35)CCO4)cc2[nH]1 | 10 to 50 nM |
| CNCCN(C)c1ncnc(N2CCOc3ccc(-c4cnc5nc(C6CC6)[nH]c5c4)cc3C2)c1C | 250 to 1000 nM |
| CC[C@H]1CCc2c(ncnc2N2CCOc3ccc(-c4cnc(N)c(S(=O)(=O)NCC(C)(C)N)c4)cc3C2)C1 | 10 to 50 nM |
| Cc1nc(Nc2ccccc2)c(C)c(N2CCOc3ccc(-c4cnc5nc[nH]c5c4)cc3C2)n1 | 10 to 50 nM |
| COCC1CCc2c(ncnc2N2CCOc3ccc(-c4cnc5nc(C)[nH]c5c4)cc3C2)C1 (configuration not stated) | 10 to 50 nM |
| COc1ccc2c(N3CCOc4ccc(-c5cnc(Cl)c(NS(C)(=O)=O)c5)cc4C3)ncnc2c1 | ≤ 10 nM |
| Cc1nc2ccc(-c3ccc4c(c3)CN(c3ncnc(Nc5ccccc5)c3C)CCO4)cc2[nH]1 | 50 to 250 nM |
| Cc1ncnc(N2CCOc3ccc(-c4ccc(N)nn4)cc3C2)c1Cc1ccc(F)cc1 | 250 to 1000 nM |
| Cc1nc2ccc(-c3ccc4c(c3)CN(c3nc(CN(C)C)nc5c3CC(C)(C)CC5)CCO4)cc2[nH]1 | ≤ 10 nM |

More lines, now with the values ahead:

| IC50 | Structure (SMILES) |
| --- | --- |
| 50 to 250 nM | CN1CCC[C@H](CNS(=O)(=O)c2cc(-c3ccc4c(c3)CN(c3ncnc5c3CC(C)(C)CC5)CCO4)cnc2N)C1 |
| 10 to 50 nM | CC1(C)CCc2ncnc(N3CCOc4ccc(-c5cnc(N)c(S(=O)(=O)N[C@H]6CCNC6)c5)cc4C3)c2C1 |
| 50 to 250 nM | CC(C)(CN)CNS(=O)(=O)c1cc(-c2ccc3c(c2)CN(c2ncnc4c2CC(C)(C)CC4)CCO3)cnc1N |
| 10 to 50 nM | CC1=Cc2ncnc(N3CCOc4ccc(-c5cnc(N)c(S(=O)(=O)NCC(C)(C)N)c5)cc4C3)c2CC1(C)C |
| ≤ 10 nM | CCNc1nc2ccc(-c3ccc4c(c3)CN(c3ncnc(NCC)c3C)CCO4)cc2[nH]1 |
| 50 to 250 nM | CC1(C)CCc2ncnc(N3CCOc4ccc(-c5cnc(N)c(CS(C)(=O)=O)c5)cc4C3)c2C1 |
| 250 to 1000 nM | Cc1nc2ccc(-c3ccc4c(c3)CN(c3ncnc5c(C(F)(F)F)cccc35)CCO4)cc2[nH]1 |
| 50 to 250 nM | CCc1c(C)ncnc1N1CCOc2ccc(-c3cnc4nc(C)[nH]c4c3)cc2C1 |
| ≤ 10 nM | COc1ccc2c(N3CCOc4ccc(-c5cnc6nc(C)[nH]c6c5)cc4C3)nc(CN(C)C)nc2c1 |
| 10 to 50 nM | Cc1nc2cc(-c3ccc4c(c3)CN(c3nc(CN(C)C)ncc3C(C)C)CCO4)ccc2[nH]1 |
| 10 to 50 nM | Cc1nc(C)c(CC2CC2)c(N2CCOc3ccc(-c4cnc5nc(C6CC6)[nH]c5c4)cc3C2)n1 |
| 250 to 1000 nM | Cc1nc2ccc(-c3ccc4c(c3)CN(c3nc(-c5ccccn5)nc5c3CC(C)(C)CC5)CCO4)cc2[nH]1 |
| 50 to 250 nM | Cc1ncnc(N2CCOc3ccc(-c4cnc(N)nc4)cc3C2)c1Cc1ccc(F)cc1 |
| 50 to 250 nM | CCNc1nc2ncc(-c3ccc4c(c3)CN(c3ccncn3)CCO4)cc2[nH]1 |
| 10 to 50 nM | CC1(C)CCc2ncnc(N3CCOc4ccc(-c5cnc(N)c(S(=O)(=O)NC[C@@H]6CCNC6)c5)cc4C3)c2C1 |
| 10 to 50 nM | Cc1nc2c(c(N3CCOc4ccc(-c5cnc6sc(N)nc6c5)cc4C3)n1)CC(C)(C)CC2 |
| 50 to 250 nM | CN(C)Cc1nc2c(c(N3CCOc4ccc(-c5ccc(N)nc5)cc4C3)n1)CC(C)(C)CC2 |
| 10 to 50 nM | CC(=O)OCc1nc2c(c(N3CCOc4ccc(-c5cnc6nc(C)[nH]c6c5)cc4C3)n1)CC(C)(C)CC2 |
| ≤ 10 nM | CC[C@H]1CCc2c(nc(C)nc2N2CCOc3ccc(-c4cnc(N)c(S(=O)(=O)N5CCC(C)(N)C5)c4)cc3C2)C1 (some centres not stated) |
| ≤ 10 nM | Cc1nc2cc(-c3ccc4c(c3)CN(c3nc(CN(C)C)nc(C)c3C(C)C)CCO4)ccc2[nH]1 |
| 250 to 1000 nM | CC1(C)CCc2ncnc(N3CCOc4ccc(-c5cnc(N6CC[C@H](N)C6)c(S(=O)(=O)N6CC[C@H](N)C6)c5)cc4C3)c2C1 |
| ≤ 10 nM | Cc1nc2cc(-c3ccc4c(c3)CN(c3nc(N)nc(C)c3Cc3ccc(F)cc3)CCO4)cnc2[nH]1 |

| IC50 | Structure (SMILES) |
| --- | --- |
| 250 to 1000 nM | COc1ccc(-c2ccc3c(c2)CN(c2nc(CN(C)C)nc4c2CC(C)(C)CC4)CCO3)cc1Cl |
| 50 to 250 nM | CC1(C)CCc2ncnc(N3CCOc4ccc(-c5cnc(N)c(S(=O)(=O)NC[C@H]6C[C@H]7CNC[C@H]7C6)c5)cc4C3)c2C1 |
| 50 to 250 nM | COc1ccc2c(N3CCOc4ccc(-c5ccc(N)nc5)cc4C3)nc(C)nc2c1 |
| 250 to 1000 nM | c1ccc2c(N3CCOc4ccc(-c5ccc6[nH]ncc6c5)cc4C3)ccnc2c1 |
| ≤ 10 nM | Cc1nc2ncc(-c3ccc4c(c3)CN(c3nc(CN(C)C(C)C)nc5c3CC(C)(C)CC5)CCO4)cc2[nH]1 |
| ≤ 10 nM | Cc1nc2cc(-c3ccc4c(c3)CN(c3nc(CN5CCCC5)nc5c3CC(C)(C)CC5)CCO4)ccc2[nH]1 |
| 250 to 1000 nM | CC1(C)CCc2ncnc(N3CCOc4ccc(-c5cnc(Cl)c(CS(C)(=O)=O)c5)cc4C3)c2C1 |
| 10 to 50 nM | CC1=CC(C)(C)Cc2c1ncnc2N1CCOc2ccc(-c3cnc4nc(C)[nH]c4c3)cc2C1 |
| 50 to 250 nM | Cc1nc2ncc(-c3ccc4c(c3)CN(c3nc(CNCC(F)(F)F)nc5c3CC(C)(C)CC5)CCO4)cc2[nH]1 |
| 10 to 50 nM | c1ccc2c(N3CCOc4ccc(-c5ccc6nc[nH]c6c5)cc4C3)ccnc2c1 |
| ≤ 10 nM | COc1ccc2c(N3CCOc4ccc(-c5cnc6[nH]c(C)nc6c5)cc4C3)nc(C)nc2c1 |
| 50 to 250 nM | Cc1ncnc(N2CCOc3ccc(-c4cc5[nH]c(N)nc5cn4)cc3C2)c1Cc1ccc(F)cc1 |
| 50 to 250 nM | CNCc1nc2ncc(-c3ccc4c(c3)CN(c3ncnc5c3CC(C)(C)CC5)CCO4)cc2[nH]1 |
| 10 to 50 nM | CCNc1ncnc(N2CCOc3ccc(-c4cnc5nc(C)[nH]c5c4)cc3C2)c1C |
| ≤ 10 nM | CC1(C)CCc2ncnc(N3CCOc4ccc(-c5cnc(N)c(S(=O)(=O)NCC(O)CN)c5)cc4C3)c2C1 (configuration not stated) |
| 10 to 50 nM | Cc1nc2cc(-c3ccc4c(c3)CN(c3nc(CCN5CCCC5)nc5c3CC(C)(C)CC5)CCO4)cnc2[nH]1 |
| 250 to 1000 nM | CC1(C)CCc2ncnc(N3CCOc4ccc(-c5ccc(Cl)c(NS(C)(=O)=O)c5)cc4C3)c2C1 |
| 250 to 1000 nM | Cc1nc(CN(C)C)nc(N2CCOc3ccc(-c4ccc5scnc5c4)cc3C2)c1Cc1ccc(F)cc1 |
| 10 to 50 nM | CCc1nc(CN(C)C)nc(N2CCOc3ccc(-c4cnc5[nH]c(C)nc5c4)cc3C2)c1C |
| 10 to 50 nM | CC(C)(N)CCNS(=O)(=O)c1cc(-c2ccc3c(c2)CN(c2ncnc4c2CC(C)(C)CC4)CCO3)cnc1N |
| ≤ 10 nM | COc1ccc2c(N3CCOc4ccc(-c5ccc6nc(C)[nH]c6c5)cc4C3)ncnc2c1 |
